The source of these data is PMC1948018 (Retrovirology, 2007).

Data set [1] has as its system HIV-1p256. As to the kind of experiment: microbe, parasite or virus in culture. Type of data set: cell-based. The settings on record: Human immunodeficiency virus 1, HeLa37, 40 h, read-out: IC50 of inhibition of HIV in HeLa 37 cells. How it is done: Short-term, single hit infectivity studies were performed as previously described. HeLa37 cells were plated in a 48-well tray and triplicate wells were infected with a dual-tropic HIV-1p256 and serial dilutions of P-TEFb inhibitor for 40 hours. The cells were fixed with 75% acetone/25% H2O and immunostained for HIV-1 antigens using human anti-HIV serum (a gift from Dr. Jack Stapleton, Univ. of Iowa) and HRP-conjugated goat anti-human IgG followed by staining with 3-amino-9-ethylcarbazole (AEC). The HIV-1 antigen-positive cells were counted. Experiments were repeated at least three times with each drug concentration in triplicate.

In data set [2] the target is T1, large form of P-TEFb (Homo sapiens, UniProt P50750). As to the kind of experiment: Differential salt extraction, loss of large form of P-TEFb in HeLa cells. The settings on record: for IC50: 1 hour treatment. Type of data set: cell-based. Here is the method: (§1) The cytosolic extracts were prepared by resuspending the cells in 80 μl of Buffer A (10 mM KCl, 10 mM MgCl2, 10 mM HEPES, 1 mM EDTA, 1 mM DTT, 0.1% PMSF and EDTA-free complete protease inhibitor cocktail (Roche)) with 0.5% NP-40 for 10 minutes on ice. The nuclei were spun down at 5,000 g for 5 minutes and the supernatant was saved as the cytosolic extract (CE). The nuclei were washed once with 200 μl of Buffer A with 0.5% NP-40 and re-pelleted. The nuclei were resuspended in 80 μl of Buffer B (450 mM NaCl, 1.5 mM MgCl2, 20 mM HEPES, 0.5 mM EDTA, 1 mM DTT, 0.1% PMSF and EDTA-free complete protease inhibitor cocktail (Roche)) and incubated on ice for 10 minutes. The lysates were clarified by centrifugation at 20,000 g for 10 minutes. The supernatant was saved as the nuclear extract (NE). Western blotting was performed with one fifth of the samples and the fraction of Cdk9 and cyclin T1 in the cytosolic and nuclear extracts was determined by imaging the chemiluminescent signal using a cooled CCD camera (UVP). The signal was quantitated using LabWorks 4.0 software and the data fit to a logistic dose response curve using TableCurve (Jandel Scientific) to determine the IC50 for loss of the large, low salt extractable form of P-TEFb.
T1 sequence (P50750 whole entry): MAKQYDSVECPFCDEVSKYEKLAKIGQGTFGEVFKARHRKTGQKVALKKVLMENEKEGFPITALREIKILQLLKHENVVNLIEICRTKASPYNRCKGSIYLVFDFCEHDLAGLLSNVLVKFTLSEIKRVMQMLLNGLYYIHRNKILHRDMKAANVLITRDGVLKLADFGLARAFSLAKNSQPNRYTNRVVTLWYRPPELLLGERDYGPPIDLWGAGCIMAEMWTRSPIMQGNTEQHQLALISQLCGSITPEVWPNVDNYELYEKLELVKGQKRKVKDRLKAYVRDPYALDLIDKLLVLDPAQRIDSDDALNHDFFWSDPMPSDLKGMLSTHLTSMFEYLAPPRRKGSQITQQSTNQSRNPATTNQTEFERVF
T1 sequence (O60563 whole entry, further chain): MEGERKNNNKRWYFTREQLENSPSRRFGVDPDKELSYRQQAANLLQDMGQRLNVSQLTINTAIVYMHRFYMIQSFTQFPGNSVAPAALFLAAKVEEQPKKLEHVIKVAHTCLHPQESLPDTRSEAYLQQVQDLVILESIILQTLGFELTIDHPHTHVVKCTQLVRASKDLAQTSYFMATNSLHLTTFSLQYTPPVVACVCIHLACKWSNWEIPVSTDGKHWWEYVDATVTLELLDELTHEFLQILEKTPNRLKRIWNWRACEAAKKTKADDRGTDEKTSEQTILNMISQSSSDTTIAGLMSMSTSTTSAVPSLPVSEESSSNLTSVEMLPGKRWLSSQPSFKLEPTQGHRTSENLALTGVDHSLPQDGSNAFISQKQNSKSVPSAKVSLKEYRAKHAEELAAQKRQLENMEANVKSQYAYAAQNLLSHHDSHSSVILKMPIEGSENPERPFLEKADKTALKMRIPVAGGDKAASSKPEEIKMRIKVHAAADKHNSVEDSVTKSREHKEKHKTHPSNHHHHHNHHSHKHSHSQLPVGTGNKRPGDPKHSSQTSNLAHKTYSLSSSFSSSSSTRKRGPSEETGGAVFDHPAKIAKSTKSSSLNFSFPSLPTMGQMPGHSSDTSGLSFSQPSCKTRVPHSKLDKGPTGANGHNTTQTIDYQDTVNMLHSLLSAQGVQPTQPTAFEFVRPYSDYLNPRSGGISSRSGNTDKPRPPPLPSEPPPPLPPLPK

Data set [3] deals with T1, large form of P-TEFb. Kind of data set: Glycerol gradient analysis of large and free forms of P-TEFb in DRB-treated HeLa cells. Format: cell-based. Here is the method:
HeLa cells were grown in 100 ml of DMEM with 10% FCS to a density of 4 × 10^5 cells/ml in spinner flasks. The cells were treated for 1 hour with no P-TEFb inhibitor or serial dilutions of DRB ranging from 0.1 to 10 μM. Cell lysates were prepared in Buffer A (10 mM KCl, 10 mM MgCl2, 10 mM HEPES, 1 mM EDTA, 1 mM DTT, 0.1% PMSF and EDTA-free complete protease inhibitor cocktail (Roche)) containing 150 mM NaCl and 0.5% NP-40. The lysates were clarified by centrifugation at 20,000 g for 10 minutes at 4°C. The supernatant was layered on top of a 5–45% glycerol gradient containing 150 mM NaCl. Gradients were spun at 190,000 g for 16 hours using a SW-55Ti rotor. The fractions were analyzed for the presence of P-TEFb complexes by immunoblotting with anti-cyclin T1 and anti-Cdk9 antibodies (Santa Cruz). Following incubation with the appropriate HRP-conjugated secondary antibodies, the blots were developed using SuperSignal DuraWest (Pierce). The western blots were imaged using a cooled CCD camera (UVP) and the amount of P-TEFb in the large and free form was quantitated using LabWorks 4.0 software.

The target in data set [4] is recombinant P-TEFb (Cdk9/cyclin T1) (Homo sapiens, UniProt P50750). Further details: method as in earlier work. The following applies: preparation of DRB tested earlier; Peng et al (1998) Genes and Dev. 12: 755–762; read-out: IC50 of kinase inhibition; cited from earlier work.
Chain of recombinant P-TEFb (Cdk9/cyclin T1) (P50750 whole entry): as the sequence (P50750 whole entry) above
Chain of recombinant P-TEFb (Cdk9/cyclin T1) (O60563 whole entry partner): as the sequence (O60563 whole entry, further chain) above
In data set [5] the target is T1, large form of P-TEFb. Kind of data set: Differential salt extraction, loss of large form of P-TEFb in Jurkat cells. The following applies: 1 hour treatment, increasing concentrations. Format: cell-based. Here is the method: as §1
In a further data set the test system is HeLa37 cells. As to the kind of experiment: Cell viability (ATPlite) in HeLa37 cells. Format: cell-based. The settings on record: performed in parallel to the 40 hour infectivity assay. How it is done: (§2) The impact of the P-TEFb inhibitors on cell viability was measured by ATPlite (Perkin Elmer). These cytotoxicity studies were performed as recommended by manufacturer utilizing a substrate solution that emits light in a manner proportional to the ATP present in each sample. Cells were plated in a 48-well format. Cells were treated with serial dilutions of the P-TEFb inhibitors and maintained for the indicated period of time. Mammalian cell lysis buffer was added to lyse the cells, followed by addition of the substrate solution. The amount of light produced in each well was measured in a TopCountR Microplate Scintillation and Luminescence Counter (Packard Instruments). Cytotoxicity experiments in HeLa37 cells were repeated at least three times with triplicates of each drug concentration.
In general terms: ATP-based viability assays read luminescence as a measure of living cells.

Data set [6] has as its system peripheral blood lymphocytes (PBLs). Kind of data set: Cell viability (ATPLite) in PBLs. Type of data set: cell-based, human. The settings on record: average of days 4, 8, 12, 16. How it is done: (§3) Human monocyte derived macrophages (MDMs) and peripheral blood lymphocytes (PBLs) cells were isolated from 350 ml of peripheral blood from healthy, HIV negative donors. Peripheral blood mononuclear cells (PBMCs) were isolated as previously described. Briefly, PBMCs were separated by centrifugation in lymphocyte separation medium (ICN Biomedicals, Solon, Ohio). The separated PBMCs were placed on gelatin and fibronectin-coated flasks in order to separate monocytes from mononuclear cells. Adherent monocytes were lifted with EDTA, washed and plated at a density of 1 × 10^6 per well in 48-well trays for infectivity and cytotoxicity studies. Monocytes were differentiated for 5 days in DMEM with 10% FCS, 10% human serum and 1% penicillin/streptomycin in order to generate monocyte-derived macrophages prior to HIV infections and drug treatment. PBLs were treated with 5 μg/ml of phytohaemagglutinin (PHA) for 72 hours prior to HIV infection and drug treatment. PHA-treated PBLs were plated at a density of 1 × 10^6 per well in 48-well trays and maintained in RPMI 1640 with 10% FCS, 1% Penicillin/Streptomycin and 10 units/ml of recombinant IL-2. Viral infection was performed in MDMs and PBLs by adding 10,000 RT units of HIV-1p256 stock per 1 × 10^6 cells. During long term studies in primary cells, supernatants were collected at 4, 8, 12 and 16 days post-infection, frozen at -80°C until analyzed and media was refreshed.
as §2, with “Cytotoxicity experiments in HeLa37 cells were repeated at least three times with triplicates of each drug concentration.” left out

Data set [7] has as its system HIV-1p256. As to the kind of experiment: Long-term HIV-1 replication in PBLs (RT activity in supernatants). The following applies: average of days 4, 8, 12, 16, read-out: average IC50 for inhibition of viral replication in PBLs. Type of data set: cell-based. How it is done:
(§4) Peripheral blood mononuclear cells (PBMCs) were isolated as previously described. Briefly, PBMCs were separated by centrifugation in lymphocyte separation medium (ICN Biomedicals, Solon, Ohio). The separated PBMCs were placed on gelatin and fibronectin-coated flasks in order to separate monocytes from mononuclear cells. […] PBLs were treated with 5 μg/ml of phytohaemagglutinin (PHA) for 72 hours prior to HIV infection and drug treatment. […] During long term studies in primary cells, supernatants were collected at 4, 8, 12 and 16 days post-infection, frozen at -80°C until analyzed and media was refreshed. […] Reverse transcriptase (RT) assays were performed on supernatants from HIV-1p256 infected cells as previously described. […] The mixture was incubated at 37°C for 3.5 hours and then blotted onto DE81 paper. The DE81 paper was washed 4 times with 3× SSPE and the amount of radioactivity that was incorporated into negative strand DNA was quantified with an InstantImager (Packard Instruments).

Data set [8] has as its system HIV-1p256. Kind of data set: Long-term HIV-1 replication in MDMs (RT activity in supernatants). Type of data set: cell-based. The following applies: Human immunodeficiency virus 1, pooled data of independent donors; days 4, 8, 12, 16; read-out: average IC50 for inhibition of HIV-1 replication in MDMs. Here is the method: as §4
Data set [9] deals with monocyte derived macrophages (MDMs). As to the kind of experiment: Cell viability (ATPLite) in MDMs. Type of data set: cell-based, human. The settings on record: pooled data of independent donors; days 4, 8, 12, 16. How it is done: as §3, with “PHA-treated PBLs were plated at a density of 1 × 10^6 per well in 48-well trays and maintained in RPMI 1640 with 10% FCS, 1% Penicillin/Streptomycin and 10 units/ml of recombinant IL-2. Viral infection was performed in MDMs and PBLs by adding 10,000 RT units of HIV-1p256 stock per 1 × 10^6 cells.” left out
The impact of the P-TEFb inhibitors on cell viability was measured by ATPlite (Perkin Elmer). […] The amount of light produced in each well was measured in a TopCountR Microplate Scintillation and Luminescence Counter (Packard Instruments). […]

For data set [10] the following is noted: Phase I trials, highest tested doses; cited from earlier work.
For another data set, the system named is HIV-1. Further details: method as in PMID 11461999. The settings on record: extensive 6 month study; cited from earlier work.

On to `OC[C@H]1O[C@@H](n2cnc3cc(Cl)c(Cl)cc32)[C@H](O)[C@@H]1O` [DRB, 5,6-dichloro-1-beta-D-ribofuranosylbenzimidazole], for which the IC50 with HIV-1p256 [1] is 2.6 µM; at large form of P-TEFb [2] (read-out: IC50 for the release of free form of P-TEFb from the large form of the complex, HeLa37 cells, low salt extraction), roughly 4.5 µM; on large form of P-TEFb [2] (read-out: IC50 of loss of large form from HeLa cells: Cdk9, Cdk9 western blot), 4.2 ± 1.6 µM; on large form of P-TEFb [2] (read-out: IC50 of loss of large form from HeLa cells: Cyclin T1, cyclin T1 western blot) it was 5 ± 3 µM; at large form of P-TEFb [3] (HeLa cells, 1 hour treatment, Cdk9 and cyclin T1 immunoblot of glycerol gradient fractions, read-out: concentration causing a 50% reduction in large form within the cell), roughly 3 µM; in data set [4], 0.9 µM. Further, at large form of P-TEFb [2] (HeLa cells, 100 μM DRB, 1 hour, untreated approx. 50% in cytosolic extract), the “P-TEFb subunits in cytosolic extracts prepared with low salt lysis buffer” value is “not detected”. For the same molecule, the “P-TEFb subunits left in the large form of the complex” value at large form of P-TEFb [3] (10 μM DRB, 1 hour, without DRB approx. 60% of Cdk9 and 70% of cyclin T1) is listed as “about 20%”. At large form of P-TEFb [5], the “effect on amount of the large form of P-TEFb” value was “gradual reduction of the large form”. For the same molecule, the “Hela37 cell cytotoxicity (LD50)” value in the data set with HeLa37 cells was found to be 20 µM.
For `CN1CC[C@H](c2c(O)cc(O)c3c(=O)cc(-c4ccccc4Cl)oc23)[C@H](O)C1` [Flavopiridol], the “LD50 in PBLs” value in [6] (donor #1) is recorded as 143 nM; in data set [6] (donor #2), 81 nM; in data set [6] (donor #3), 123 nM. Further, the IC50 in the data set on HIV-1p256 [1] is 0.0095 µM; with HIV-1p256 [7] (Human immunodeficiency virus 1, donor #1), 0.035 µM; with HIV-1p256 [7] (Human immunodeficiency virus 1, donor #2), 0.04 µM; with HIV-1p256 [7] (Human immunodeficiency virus 1, donor #3), 0.061 µM; with HIV-1p256 [8] it was 0.061 µM. Also, the “effect on amount of the large form of P-TEFb” value on large form of P-TEFb [5] is “gradual reduction in the amount of the large form”. The “Hela37 cell cytotoxicity (LD50)” value with HeLa37 cells stood at 0.225 µM. In data set [9], the “LD50 in MDMs” value amounted to 99 nM.
As for `CC[C@H](CO)Nc1nc(NCc2ccccc2)c2ncn(C(C)C)c2n1` [Seliciclib], the side effects caused entry in data set [10] was “fatigue and elevated creatinine”.
On to `CC[C@H](CO)Nc1nc(NCc2ccccc2)c2ncn(C(C)C)c2n1` [roscovitine], for which the “generation of a resistant HIV-1 strain” value in the data set with HIV-1 is listed as “unsuccessful”.
